Test results reported in the kinase profiling compilation of Christmann-Franck et al. (2016).

Assays:
Experiment in all cases: KINOMEscan competition binding
Conditions in all cases: compound 10.0 µM
RIOK2 (human) = RIOK2 (human) (UniProt Q9BVS4)
PIP4K2B (human) = PIP4K2B (human) (UniProt P78356)
MAPK7 (human) = MAPK7 (human) (UniProt Q13164)
CDKL2 (human) = CDKL2 (human) (UniProt Q92772)
FGFR4 (human) = FGFR4 (human) (UniProt P22455)
[1] = test system: PIK3CA (human), P42336 [M1043I]
PTK2B (human) = PTK2B (human) (UniProt Q14289)
PTK2B (human), sequence (Q14289 whole entry, looked up): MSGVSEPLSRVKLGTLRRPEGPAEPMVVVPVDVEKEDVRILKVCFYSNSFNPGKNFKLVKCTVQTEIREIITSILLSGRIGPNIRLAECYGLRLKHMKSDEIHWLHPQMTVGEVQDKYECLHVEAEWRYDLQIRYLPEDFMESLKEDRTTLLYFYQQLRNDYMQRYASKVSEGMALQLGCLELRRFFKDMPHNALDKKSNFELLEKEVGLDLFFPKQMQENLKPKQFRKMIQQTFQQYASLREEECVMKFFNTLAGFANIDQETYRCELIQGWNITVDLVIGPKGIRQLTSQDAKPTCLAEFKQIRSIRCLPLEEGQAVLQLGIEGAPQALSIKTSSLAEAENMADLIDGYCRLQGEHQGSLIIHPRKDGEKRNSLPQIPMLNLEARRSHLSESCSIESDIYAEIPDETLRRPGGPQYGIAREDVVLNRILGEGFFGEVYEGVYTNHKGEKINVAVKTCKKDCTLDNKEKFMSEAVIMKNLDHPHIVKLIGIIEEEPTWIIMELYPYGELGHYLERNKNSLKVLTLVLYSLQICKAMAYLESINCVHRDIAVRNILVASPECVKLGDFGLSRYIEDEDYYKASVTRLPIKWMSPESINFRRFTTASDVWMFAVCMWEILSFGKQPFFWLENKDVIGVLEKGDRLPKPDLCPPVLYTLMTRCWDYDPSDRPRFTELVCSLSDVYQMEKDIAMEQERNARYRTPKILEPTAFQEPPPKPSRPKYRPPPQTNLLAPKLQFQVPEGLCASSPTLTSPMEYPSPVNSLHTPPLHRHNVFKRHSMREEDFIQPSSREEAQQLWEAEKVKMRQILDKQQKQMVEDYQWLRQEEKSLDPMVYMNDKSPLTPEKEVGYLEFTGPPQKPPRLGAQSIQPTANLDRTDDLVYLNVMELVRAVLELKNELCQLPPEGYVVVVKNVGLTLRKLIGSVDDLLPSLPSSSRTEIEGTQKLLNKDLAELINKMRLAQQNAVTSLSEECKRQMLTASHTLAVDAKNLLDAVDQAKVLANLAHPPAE

CAMKK1 (human) = CAMKK1 (human) (UniProt Q8N5S9)
FLT1 (human) = FLT1 (human) (UniProt P17948)
NEK6 (human) = NEK6 (human) (UniProt Q9HC98)
DDR2 (human) = DDR2 (human) (UniProt Q16832)
DDR2 (human), sequence (Q16832 whole entry, looked up): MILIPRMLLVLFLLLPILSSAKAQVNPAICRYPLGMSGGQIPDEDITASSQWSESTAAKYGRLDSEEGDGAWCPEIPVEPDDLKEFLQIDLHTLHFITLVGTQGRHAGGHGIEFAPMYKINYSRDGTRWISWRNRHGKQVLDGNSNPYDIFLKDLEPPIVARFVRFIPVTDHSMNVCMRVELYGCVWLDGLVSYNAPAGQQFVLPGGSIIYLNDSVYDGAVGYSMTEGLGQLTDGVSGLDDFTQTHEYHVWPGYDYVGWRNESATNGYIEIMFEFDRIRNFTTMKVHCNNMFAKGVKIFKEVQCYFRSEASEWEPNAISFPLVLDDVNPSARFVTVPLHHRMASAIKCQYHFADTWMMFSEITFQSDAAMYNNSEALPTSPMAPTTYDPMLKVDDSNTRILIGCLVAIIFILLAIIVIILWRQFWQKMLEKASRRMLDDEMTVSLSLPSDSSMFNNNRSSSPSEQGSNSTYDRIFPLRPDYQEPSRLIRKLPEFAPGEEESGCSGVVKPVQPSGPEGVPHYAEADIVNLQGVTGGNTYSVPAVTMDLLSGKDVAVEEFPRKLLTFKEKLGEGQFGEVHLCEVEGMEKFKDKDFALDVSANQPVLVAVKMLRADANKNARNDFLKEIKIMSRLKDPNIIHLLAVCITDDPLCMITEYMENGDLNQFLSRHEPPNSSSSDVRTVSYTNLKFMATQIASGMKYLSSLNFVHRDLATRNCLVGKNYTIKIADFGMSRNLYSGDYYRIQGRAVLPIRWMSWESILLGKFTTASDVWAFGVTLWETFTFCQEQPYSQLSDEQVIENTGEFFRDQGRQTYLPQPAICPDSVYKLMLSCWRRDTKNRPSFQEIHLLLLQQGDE

[2] = test system: EGFR (human), P00533 [A750P; 747-749 del]
DSTYK (human) = DSTYK (human) (UniProt Q6XUX3)
CSNK1G1 (human) = CSNK1G1 (human) (UniProt Q9HCP0)
ACVR1 (human) = ACVR1 (human) (UniProt Q04771)
CDC42BPA (human) = CDC42BPA (human) (UniProt Q5VT25)
KIT (human) = KIT (human) (UniProt P10721)
[3] = test system: EGFR (human), P00533 [752-759 del]
RIPK2 (human) = RIPK2 (human) (UniProt O43353)
NUAK2 (human) = NUAK2 (human) (UniProt Q9H093)
NEK5 (human) = NEK5 (human) (UniProt Q6P3R8)
NEK5 (human), sequence (Q6P3R8 whole entry, looked up): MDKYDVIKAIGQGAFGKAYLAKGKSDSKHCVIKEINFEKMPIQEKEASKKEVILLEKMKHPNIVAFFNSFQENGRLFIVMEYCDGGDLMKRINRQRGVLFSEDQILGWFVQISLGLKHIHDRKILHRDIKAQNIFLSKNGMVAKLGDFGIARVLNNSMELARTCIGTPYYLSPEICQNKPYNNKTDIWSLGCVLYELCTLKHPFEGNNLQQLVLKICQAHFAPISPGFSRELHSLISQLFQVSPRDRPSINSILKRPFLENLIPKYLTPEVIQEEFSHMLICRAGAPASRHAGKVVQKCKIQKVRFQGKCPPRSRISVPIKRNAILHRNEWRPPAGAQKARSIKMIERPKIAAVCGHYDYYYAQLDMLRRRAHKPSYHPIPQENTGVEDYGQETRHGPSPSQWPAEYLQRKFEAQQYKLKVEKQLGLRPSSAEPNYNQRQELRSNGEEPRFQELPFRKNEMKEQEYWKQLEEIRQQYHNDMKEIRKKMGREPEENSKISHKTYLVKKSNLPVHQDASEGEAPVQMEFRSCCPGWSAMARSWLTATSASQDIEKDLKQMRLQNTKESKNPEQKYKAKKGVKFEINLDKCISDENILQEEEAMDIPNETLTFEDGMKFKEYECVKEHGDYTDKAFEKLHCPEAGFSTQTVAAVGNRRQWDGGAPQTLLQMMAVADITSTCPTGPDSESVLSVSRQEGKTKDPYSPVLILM

STK10 (human) = STK10 (human) (UniProt O94804)
CSNK2A2 (human) = CSNK2A2 (human) (UniProt P19784)
CSNK2A2 (human), sequence (P19784 whole entry, looked up): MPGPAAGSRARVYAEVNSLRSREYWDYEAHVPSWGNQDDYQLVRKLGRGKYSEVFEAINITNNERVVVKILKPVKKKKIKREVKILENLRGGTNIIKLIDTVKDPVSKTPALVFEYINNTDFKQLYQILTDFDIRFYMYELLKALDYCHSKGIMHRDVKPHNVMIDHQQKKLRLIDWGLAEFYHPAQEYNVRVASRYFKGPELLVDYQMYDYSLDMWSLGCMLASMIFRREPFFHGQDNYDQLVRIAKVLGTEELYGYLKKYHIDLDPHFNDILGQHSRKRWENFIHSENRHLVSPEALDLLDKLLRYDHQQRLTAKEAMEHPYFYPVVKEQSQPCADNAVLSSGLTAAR

PTK6 (human) = PTK6 (human) (UniProt Q13882)
PTK6 (human), sequence (Q13882 whole entry, looked up): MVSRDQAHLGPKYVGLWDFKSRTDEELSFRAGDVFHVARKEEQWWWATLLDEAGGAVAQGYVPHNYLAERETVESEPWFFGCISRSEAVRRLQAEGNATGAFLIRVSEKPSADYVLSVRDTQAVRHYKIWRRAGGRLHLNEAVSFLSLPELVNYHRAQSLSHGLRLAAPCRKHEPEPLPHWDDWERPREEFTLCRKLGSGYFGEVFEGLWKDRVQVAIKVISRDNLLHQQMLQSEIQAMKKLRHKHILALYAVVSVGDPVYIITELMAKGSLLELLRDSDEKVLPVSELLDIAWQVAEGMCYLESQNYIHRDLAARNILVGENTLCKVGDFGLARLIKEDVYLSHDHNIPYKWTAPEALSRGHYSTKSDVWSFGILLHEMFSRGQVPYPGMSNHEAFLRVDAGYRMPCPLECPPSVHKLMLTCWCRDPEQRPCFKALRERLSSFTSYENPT

EPHA6 (human) = EPHA6 (human) (UniProt Q9UF33)
MAPK14 (human) = MAPK14 (human) (UniProt Q16539)
EPHA1 (human) = EPHA1 (human) (UniProt P21709)
ROS1 (human) = ROS1 (human) (UniProt P08922)
CDC42BPG (human) = CDC42BPG (human) (UniProt Q6DT37)
EIF2AK2 (human) = EIF2AK2 (human) (UniProt P19525)
PIM1 (human) = PIM1 (human) (UniProt P11309)
SIK2 (human) = SIK2 (human) (UniProt Q9H0K1)
CDK2 (human) = CDK2 (human) (UniProt P24941)
[4] = test system: KIT (human), P10721 [L576P]
AURKA (human) = AURKA (human) (UniProt O14965)
PAK6 (human) = PAK6 (human) (UniProt Q9NQU5)
PAK6 (human), sequence (Q9NQU5 whole entry, looked up): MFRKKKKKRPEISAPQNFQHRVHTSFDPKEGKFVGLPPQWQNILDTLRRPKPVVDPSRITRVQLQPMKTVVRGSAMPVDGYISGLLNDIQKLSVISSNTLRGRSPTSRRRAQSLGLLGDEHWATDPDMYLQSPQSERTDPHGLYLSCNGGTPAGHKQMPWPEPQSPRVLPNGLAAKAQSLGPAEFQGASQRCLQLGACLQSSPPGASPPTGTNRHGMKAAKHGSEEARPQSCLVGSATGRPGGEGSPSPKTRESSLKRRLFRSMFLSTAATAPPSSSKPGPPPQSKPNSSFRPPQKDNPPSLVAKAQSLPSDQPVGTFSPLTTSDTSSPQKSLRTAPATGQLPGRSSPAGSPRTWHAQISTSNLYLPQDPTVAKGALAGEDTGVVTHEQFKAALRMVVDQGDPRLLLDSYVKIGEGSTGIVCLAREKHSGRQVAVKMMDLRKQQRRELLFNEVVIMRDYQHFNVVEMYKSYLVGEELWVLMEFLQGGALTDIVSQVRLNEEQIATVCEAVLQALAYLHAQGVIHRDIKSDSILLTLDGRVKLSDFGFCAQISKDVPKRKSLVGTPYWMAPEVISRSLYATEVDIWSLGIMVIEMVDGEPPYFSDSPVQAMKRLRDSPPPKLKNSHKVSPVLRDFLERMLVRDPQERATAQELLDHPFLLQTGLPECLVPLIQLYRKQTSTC

FGR (human) = FGR (human) (UniProt P09769)
STK16 (human) = STK16 (human) (UniProt O75716)
NTRK1 (human) = NTRK1 (human) (UniProt P04629)
CSNK1A1L (human) = CSNK1A1L (human) (UniProt Q8N752)
RPS6KA6 KD2 (human) = RPS6KA6 KD2 (human) (UniProt Q9UK32)

PIP4K2B (human), sequence (P78356 whole entry, looked up): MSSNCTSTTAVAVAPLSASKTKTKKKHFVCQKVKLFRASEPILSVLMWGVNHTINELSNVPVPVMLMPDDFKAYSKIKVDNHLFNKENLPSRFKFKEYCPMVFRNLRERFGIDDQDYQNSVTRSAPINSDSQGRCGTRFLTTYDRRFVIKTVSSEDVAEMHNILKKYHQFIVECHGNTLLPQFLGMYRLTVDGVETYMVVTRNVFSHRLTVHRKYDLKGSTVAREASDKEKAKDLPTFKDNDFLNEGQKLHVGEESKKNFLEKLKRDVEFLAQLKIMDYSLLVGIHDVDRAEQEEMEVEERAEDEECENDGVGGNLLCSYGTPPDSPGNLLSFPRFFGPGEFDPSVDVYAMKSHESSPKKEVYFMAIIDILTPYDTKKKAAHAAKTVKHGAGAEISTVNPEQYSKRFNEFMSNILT
CDKL2 (human), sequence (Q92772 whole entry, looked up): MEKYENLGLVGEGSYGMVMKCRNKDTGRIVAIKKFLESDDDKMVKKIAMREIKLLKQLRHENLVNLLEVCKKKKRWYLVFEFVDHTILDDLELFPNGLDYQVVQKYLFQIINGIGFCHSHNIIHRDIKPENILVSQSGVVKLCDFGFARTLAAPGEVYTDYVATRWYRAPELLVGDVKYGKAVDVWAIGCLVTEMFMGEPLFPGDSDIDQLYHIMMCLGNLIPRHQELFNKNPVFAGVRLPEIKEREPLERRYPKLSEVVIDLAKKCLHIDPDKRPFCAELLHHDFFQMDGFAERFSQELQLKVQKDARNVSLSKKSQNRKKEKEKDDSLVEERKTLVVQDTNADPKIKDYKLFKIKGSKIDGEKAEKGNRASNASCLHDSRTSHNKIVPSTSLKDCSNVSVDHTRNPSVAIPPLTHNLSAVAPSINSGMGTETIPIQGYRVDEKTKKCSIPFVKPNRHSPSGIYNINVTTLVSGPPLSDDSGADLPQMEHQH

COc1ccc(-c2ccc3c(N4CCOCC4)nc(N4C[C@@H](C)O[C@@H](C)C4)nc3n2)cc1CO
kinase still bound, per cent of control (RIOK2 (human)): 60% | kinase still bound, per cent of control (PIP4K2B (human)): 100% | kinase still bound, per cent of control (MAPK7 (human)): 100% | per cent of control (CDKL2 (human)): 95% | kinase still bound, per cent of control (FGFR4 (human)): 100% | kinase still bound, per cent of control [1]: 2% | kinase still bound, per cent of control (PTK2B (human)): 84% | kinase still bound, per cent of control (CAMKK1 (human)): 100% | kinase still bound, per cent of control (FLT1 (human)): 92% | kinase still bound, per cent of control (NEK6 (human)): 96% | kinase still bound, per cent of control (DDR2 (human)): 100% | kinase still bound, per cent of control [2]: 100% | kinase still bound, per cent of control (DSTYK (human)): 78% | kinase still bound, per cent of control (CSNK1G1 (human)): 94% | kinase still bound, per cent of control (ACVR1 (human)): 100% | kinase still bound, per cent of control (CDC42BPA (human)): 92% | kinase still bound, per cent of control (KIT (human)): 87% | kinase still bound, per cent of control [3]: 100% | kinase still bound, per cent of control (RIPK2 (human)): 100% | kinase still bound, per cent of control (NUAK2 (human)): 100% | kinase still bound, per cent of control (NEK5 (human)): 100% | kinase still bound, per cent of control (STK10 (human)): 92% | kinase still bound, per cent of control (CSNK2A2 (human)): 98% | kinase still bound, per cent of control (PTK6 (human)): 100% | kinase still bound, per cent of control (EPHA6 (human)): 100% | kinase still bound, per cent of control (MAPK14 (human)): 99% | kinase still bound, per cent of control (EPHA1 (human)): 96% | kinase still bound, per cent of control (ROS1 (human)): 100% | kinase still bound, per cent of control (CDC42BPG (human)): 65% | kinase still bound, per cent of control (EIF2AK2 (human)): 100% | kinase still bound, per cent of control (PIM1 (human)): 94% | kinase still bound, per cent of control (SIK2 (human)): 91% | per cent of control (CDK2 (human)): 77% | kinase still bound, per cent of control [4]: 93% | kinase still bound, per cent of control (AURKA (human)): 80% | kinase still bound, per cent of control (PAK6 (human)): 90% | kinase still bound, per cent of control (FGR (human)): 100% | kinase still bound, per cent of control (STK16 (human)): 93% | kinase still bound, per cent of control (NTRK1 (human)): 72% | kinase still bound, per cent of control (CSNK1A1L (human)): 97% | kinase still bound, per cent of control (RPS6KA6 KD2 (human)): 93%
